According to patent publication US20260283124A1, “NON-HUMAN ANIMAL, KIT, AND METHOD FOR PRODUCING REPLACEMENT ORGAN” (THE JIKEI UNIVERSITY, priority 2023, published 2026):
Entries after “also recorded” stand apart in the source; their conditions may differ. Like-named read-outs stand apart in the source and are kept apart here.

Columns and labels:
[1] = test system: NPCs; experiment: Culture of fetal kidney of single allele knock-in (heterozygous) mice with CID and/or AT406; format: cell-based, mouse
[2] = test system: nephron progenitor cells; experiment: Kidney organoid from nephron progenitor cells of Six2-iCaspase9-tdTomato mouse, CID administration; format: cell-based; details: with CID administration
Description: Nephron progenitor cells were isolated from the Six2-iCaspase9-tdTomato mouse prepared in Experimental Example 1, and a kidney organoid was prepared by three-dimensional culture. AP20187 (hereinafter, referred to as CID) was administered to the kidney organoid.

[3] = test system: Six2-positive nephron progenitor cells; experiment: Organ culture on Transwell of E11 fetal kidney of Six2-iCaspase9-tdTomato mouse with CID in medium; format: cell-based; details: for Expression of tdTomato fluorescence in nephron progenitor cells: second day after administration
Description: The kidney was excised from an E11 fetus of the Six2-iCaspase9-tdTomato mouse prepared in Experimental Example 1, and organ culture was performed on a Transwell. In the group in which AP20187 (CID) was administered to the culture medium, the expression of tdTomato fluorescence in nephron progenitor cells was reduced on the second day after administration (see FIG. 4).

[4] = test system: Six2-positive nephron progenitor cells; experiment: Intraperitoneal administration to neonatal Six2-iCaspase9-tdTomato mice, kidneys collected 48 hours later; format: in vivo, mouse
Description: AP20187 (CID) was intraperitoneally administered to neonatal Six2-iCaspase9-tdTomato mice prepared in Experimental Example 1, and the […] mouse kidneys were collected 48 hours later.

[5] = test system: Six2-positive nephron progenitor cells; experiment: TUNEL staining of organ-cultured E13 fetal kidney of Six2-iCaspase9-tdTomato mouse; format: cell-based; details: 100 nM CID, 12 hours after administration
Description: The kidney was excised from an E13 fetus of the Six2-iCaspase9-tdTomato mouse prepared in Experimental Example 1, and organ culture was performed on a Transwell. Apoptosis was evaluated by TUNEL staining after collection at 12 and 18 hours following the administration of 100 nM CID to the culture medium.

[6] = test system: NPCs; experiment: Culture of kidneys of E13.5 fetuses of both allele knock-in (homozygous) mice with CID; format: cell-based, mouse; details: 100 nM of CID, homozygous E13.5 fetal kidney culture
Description: In a case where the kidneys of E13.5 fetuses of both allele knock-in (homozygous) mice were collected, CID was added thereto, and the kidneys were cultured, it was confirmed that 90% or more of NPCs were removed by adding 100 nM of CID (see FIG. 10).

[7] = test system: NPCs; experiment: Subcutaneous administration to homozygous neonatal mice; format: in vivo, mouse
[8] = test system: NPCs; experiment: Administration to heterozygous neonatal mice, CID alone or combined with AT406; format: in vivo, mouse
[9] = test system: NPCs; experiment: Intraperitoneal administration to pregnant dam carrying homozygous fetuses; format: in vivo, mouse
Source text: The CID was intraperitoneally administered to a pregnant dam carrying homozygous fetuses (see FIG. 15). As a result, it was confirmed that the kidney size of the neonates (PO) was reduced and the cap mesenchyme structure, which constitutes the nephrogenic niche formed by NPCs, was disrupted (see FIG. 16). […] Furthermore, a decrease in the number of glomeruli was also confirmed (see FIG. 18).

[10] = test system: glomeruli; experiment: Nephron replacement: rat renal progenitor cells injected into homozygous fetal kidney, CID-added culture medium, then transplanted into immunodeficient mice; format: in vivo, mouse; details: rat RPCs injected, day 14 after transplant into immunodeficient mice
Description: It was verified whether or not the replacement of nephron could be induced by transplanting the exogenous NPC at the same time as the removal of the NPC of the fetal kidney (see FIG. 20). In a case where renal progenitor cells (RPCs) of rats were injected into a homozygous fetal kidney and cultured in a CID-added culture medium, it was confirmed that at the time point of day 4, the renal progenitor cells adhered to the ureteral bud of the host and formed a chimeric cap mesenchyme (see FIG. 21). In addition, in a case where the cells were transplanted into immunodeficient mice after the cell injection and allowed to develop in vivo, it was confirmed that at the time point of day 14, the rat-derived cells differentiated into glomeruli and renal tubules, and approximately 80% of the glomeruli were replaced with rat-derived cells. A rat distal tubule connected to the collecting duct derived from the fetal mouse kidney was also confirmed (see FIG. 22).

[11] = administration at E13.5, animal at 1 month of age
[12] = intraperitoneal to pregnant dam, homozygous fetuses

SMILES: CN[C@@H](C)C(=O)N[C@H]1CN(C(=O)CC(C)C)CC[C@H]2CC[C@@H](C(=O)NC(c3ccccc3)c3ccccc3)N2C1=O [AT406]
- NPC removal ([1]; single administration of AT406, heterozygous fetal kidney culture): NPC removal did not occur

SMILES: CC[C@H](C(=O)N1CCCC[C@H]1C(=O)O[C@H](CCc1ccc(OC)c(OC)c1)c1cccc(OCC(=O)NCC(CNC(=O)COc2cccc([C@@H](CCc3ccc(OC)c(OC)c3)OC(=O)[C@@H]3CCCCN3C(=O)[C@@H](CC)c3cc(OC)c(OC)c(OC)c3)c2)CN(C)C)c1)c1cc(OC)c(OC)c(OC)c1 [CID, AP20187]
- Apoptosis of nephron progenitor cells (immunostained image) [2]: subjected to apoptosis; also recorded: Induced cell death of nephron progenitor cells was observed
- Removal of Six2-positive nephron progenitor cells (immunostaining) ([3]; day 3): removal of Six2-positive nephron progenitor cells was confirmed
- Expression of tdTomato fluorescence in nephron progenitor cells [3]: removal of nephron progenitor cells
- Expression of tdTomato fluorescence in nephron progenitor cells ([3]; listed as AP20187): reduced
- Nephron progenitor cell marker Six2 (immunostaining) in kidney [4]: disappeared; also recorded: removal of Six2-positive nephron progenitor cells in the neonatal kidney was observed
- Nephron progenitor cells (red, tdTomato fluorescence) in kidney [4]: disappeared due to apoptosis
- Nephron progenitor cells (red, tdTomato fluorescence) in kidney ([4]; listed as AP20187): removal of Six2-positive nephron progenitor cells in the neonatal kidney was observed
- Apoptosis by TUNEL staining, co-localization with Six2-positive nephron progenitor cells [5]: TUNEL positivity was observed
- NPCs removed [6]: ≥ 90%
- NPC removal ([1]; 100 nM of CID alone, heterozygous fetal kidney culture): NPC removal was not confirmed
- NPC removal [7]: NPC removal was confirmed
- NPC removal [8]: NPC removal does not occur
- Survival of animals after birth ([9]; administration at E11.5): died due to severe renal failure
- Survival of animals after birth ([9]; administration at E13.5): survival of animals was confirmed
- Serum urea nitrogen (BUN) compared with the control [9, 11]: significantly increased
- Urinary albumin-to-creatinine ratio (ACR) compared with the control [9, 11]: significantly increased
- Cap mesenchyme structure (nephrogenic niche formed by NPCs) [9, 12]: disrupted
- Kidney size of the neonates (P0) [9, 12]: reduced
- NPCs by immunostaining [9, 12]: disappearance of the NPCs was confirmed
- Number of glomeruli [9, 12]: decrease
- Glomeruli replaced with rat-derived cells [10]: approximately 80%
